Reference: patent US9216964B2, “Hedgehog pathway modulators” (Novartis AG, priority 2008, dated 2015)

System: hedgehog signaling pathway
Experiment: Gli-Luc Reporter Assay for Hh Pathway Inhibition (TMHh-12 cells, pTA-8×Gli-Luc reporter)
Type: cell-based, Mouse
Conditions: Mus musculus, TMHh12, Ag1.5 1 nM; read-out: Hedgehog Inhibition IC50 (nM) (Ag1.5 1 nM)
In short: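 Mouse TM3 cells stably carrying an 8×Gli-firefly luciferase reporter, in 2% FBS medium; pathway activated with recombinant mouse Shh (8 μg/mL) or Smo agonist, compounds added at varying concentrations for 48 h. Luminescence read; IC50 at 50% signal reduction. Toxicity checked in TM3 cells (CellTiter-Glo) or constitutive-luciferase TM3-Luc cells.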

Row | IC50 [nM] | SMILES
1 | 1.2 | Clc1ccc(Nc2cccc3c2CCN(C2CCCCCC2)C3)cc1-c1ncc(-c2ccccc2)[nH]1 [Compound 30]
2 | 15 | Cc1cnc(-c2cc(Nc3cccc4c3CCN(S(C)(=O)=O)C4)ccc2C)nc1 [Compound 216]
3 | 2.1 | Cc1ccc(Nc2cccc3c2CCN(S(C)(=O)=O)C3)cc1C(=O)Nc1ccccn1 [Compound 162]
4 | 101 | Cc1ccc(Nc2cccc3c2CCN(S(C)(=O)=O)C3)cc1-c1ccc(CC#N)cc1 [Compound 139]
5 | 1 | Cc1ccc(Nc2cccc3c2CCN(S(C)(=O)=O)C3)cc1C(=O)Nc1ccc(C#N)cc1 [Compound 160]
6 | 738 | Cc1ccc(Nc2cccc3c2CCN(S(C)(=O)=O)C3)cc1Oc1ccccc1 [Compound 123]
7 | 3.8 | CN(C)c1ccc2nc(-c3cc(Nc4cccc5c4CCN(S(C)(=O)=O)C5)ccc3Cl)[nH]c2c1 [Compound 16]
8 | 2.6 | O=C1c2cccc(Nc3ccc(Cl)c(-c4ncc(-c5ccccc5)[nH]4)c3)c2CCN1C[C@H](O)CO [Compound 35]

Same assay, conditions: Mus musculus, TMHh12, enzymatic and cellular assays for the inhibition of hedgehog signaling pathways; read-out: IC50 Ranges

Row | SMILES | IC50 [nM]
9 | Cc1ccc(Nc2cccc3c2CCN(S(C)(=O)=O)C3)cc1-c1ncc(-c2cncnc2)[nH]1 [Compound 59] | 1 to 10
10 | O=C(O)C(F)(F)CN1CCc2c(cccc2Nc2ccc(Cl)c(-c3nc(-c4ccccc4)c[nH]3)c2)C1 [Compound 64] | 1 to 10
11 | CC1(N2CCc3c(cccc3Nc3ccc(Cl)c(-c4ncc(-c5ccccc5)[nH]4)c3)C2)CC1 [Compound 80] | 1 to 10
12 | CC(C(=O)O)N1CCc2c(Nc3ccc(Cl)c(-c4nc(-c5ccccc5)c[nH]4)c3)cccc2C1=O (centres unmarked) [Compound 77] | 100 to 1000
13 | Clc1ccc(Nc2cccc3c2CCN(C2CC2)C3)cc1-c1ncc(-c2ccccc2)[nH]1 [Compound 82] | 0.001 to 1
14 | O=C([C@H](O)CO)N1CCc2c(cccc2Nc2ccc(Cl)c(-c3nc(-c4ccccc4)c[nH]3)c2)C1 [Compound 38] | 0.001 to 1
15 | Cc1ccc(Nc2cccc3c2CCN(S(C)(=O)=O)C3)cc1-c1ccc(C(C)C)cc1 [Compound 117] | 100 to 1000
16 | Clc1ccc(Nc2cccc3c2CCN(C2CCCCCC2)C3)cc1-c1ncc(-c2ccccc2)[nH]1 [Compound 30] | 1 to 10
17 | COc1ccc(-c2cc(Nc3cccc4c3CCN(S(C)(=O)=O)C4)ccc2C)nc1 [Compound 174] | 0.001 to 1
18 | O=C(O)CCN1CCc2c(Nc3ccc(Cl)c(-c4nc(-c5ccccc5)c[nH]4)c3)cccc2C1=O [Compound 50] | 10 to 100
19 | O=C(O)CC(=O)N1CCc2c(cccc2Nc2ccc(Cl)c(-c3nc(-c4ccccc4)c[nH]3)c2)C1 [Compound 44] | 1 to 10
20 | CS(=O)(=O)N1CCc2c(cccc2Nc2ccc(OC(F)(F)F)c(-c3ccc(C#N)cc3)c2)C1 [Compound 150] | 1000 to 10000
21 | Cc1ccc(Nc2cccc3c2CCN(S(C)(=O)=O)C3)cc1-c1ccc(-c2ccco2)cc1 [Compound 121] | 100 to 1000
22 | Cc1ccc(Nc2cccc3c2CCN(S(C)(=O)=O)C3)cc1-c1ccc(C(=O)O)cc1 [Compound 144] | 1000 to 10000
23 | CS(=O)(=O)N1CCc2c(cccc2Nc2ccc(Cl)c(-c3ncc(-c4ccccc4)[nH]3)c2)C1 [Compound 4] | 0.001 to 1
24 | CC(=O)N1CCc2c(cccc2Nc2ccc(Cl)c(-c3ncc(-c4ccccc4)[nH]3)c2)C1 [Compound 56] | 0.001 to 1
25 | Clc1ccc(Nc2cccc3c2CCN(Cc2nn[nH]n2)C3)cc1-c1ncc(-c2ccccc2)[nH]1 [Compound 86] | 1 to 10
26 | CCC(CC)N1CCC(N2CCc3c(cccc3Nc3ccc(Cl)c(-c4ncc(-c5ccccc5)[nH]4)c3)C2)CC1 [Compound 31] | 0.001 to 1

Row | SMILES | IC50 [nM]
27 | Cc1ccc(Nc2cccc3c2CCN(S(C)(=O)=O)C3)cc1C(=O)Nc1ccccn1 [Compound 162] | 1 to 10
28 | Cc1ccc(Nc2cccc3c2CCN(S(C)(=O)=O)C3)cc1-c1ccc(CC#N)cc1 [Compound 139] | 100 to 1000
29 | O=C(C(O)CO)N1CCc2c(cccc2Nc2ccc(Cl)c(-c3ncc(-c4ccccc4)[nH]3)c2)C1 (centres unmarked) [Compound 9] | 0.001 to 1
30 | Cc1ccc(Nc2cccc3c2CCN(S(C)(=O)=O)C3)cc1-c1ccc(C#N)cn1 [Compound 154] | 1 to 10
31 | [O-][S+]1CCC(N2CCc3c(cccc3Nc3ccc(Cl)c(-c4ncc(-c5ccccc5)[nH]4)c3)C2)CC1 (centres unmarked) [Compound 12] | 0.001 to 1
32 | Cc1ccc(Nc2cccc3c2CCN(S(C)(=O)=O)C3)cc1C(=O)Nc1ccc(C#N)cc1 [Compound 160] | 0.001 to 1
33 | O=C(O)C1(C(=O)N2CCc3c(cccc3Nc3ccc(Cl)c(-c4ncc(-c5ccccc5)[nH]4)c3)C2)CC1 [Compound 68] | 0.001 to 1
34 | Cc1ccc(Nc2cccc3c2CCN(S(C)(=O)=O)C3)cc1Oc1ccccc1 [Compound 123] | 100 to 1000
35 | O=C(N1CCc2c(cccc2Nc2ccc(Cl)c(-c3ncc(-c4ccccc4)[nH]3)c2)C1)C1(O)CC1 [Compound 74] | 0.001 to 1
36 | Cc1ccc(Nc2cccc3c2CCN(S(C)(=O)=O)C3)cc1-c1ccc(C(=O)N(CCO)CCO)cc1 [Compound 147] | 1000 to 10000
37 | Cc1ccc(Nc2cccc3c2CCN(S(C)(=O)=O)C3)cc1-c1ccc(Cn2cccn2)cc1 [Compound 118] | 100 to 1000
38 | Clc1ccc(Nc2cccc3c2CCN(C2CCCCC2)C3)cc1-c1ncc(-c2ccccc2)[nH]1 [Compound 22] | 1 to 10
39 | CN(C)c1ccc2nc(-c3cc(Nc4cccc5c4CCN(S(C)(=O)=O)C5)ccc3Cl)[nH]c2c1 [Compound 16] | 1 to 10
40 | COc1ccc(-c2cnc(-c3cc(Nc4cccc5c4CCN(S(C)(=O)=O)C5)ccc3C)[nH]2)cn1 [Compound 100] | 0.001 to 1
41 | O=C1c2cccc(Nc3ccc(Cl)c(-c4ncc(-c5ccccc5)[nH]4)c3)c2CCN1C[C@H](O)CO [Compound 35] | 1 to 10
42 | CC(C)(C(=O)O)C(=O)N1CCc2c(cccc2Nc2ccc(Cl)c(-c3ncc(-c4ccccc4)[nH]3)c2)C1 [Compound 67] | 1 to 10
43 | Cc1ccc(Nc2cccc3c2CCN(S(C)(=O)=O)C3)cc1-c1cccc(C#N)c1 [Compound 119] | 10 to 100

Further lines, results first:

Row | IC50 [nM] | SMILES
44 | 1 to 10 | Cc1ccc(Nc2cccc3c2CCN(CCS(C)(=O)=O)C3)cc1-c1ccc(C#N)cn1 [Compound 245]
45 | 0.001 to 1 | Cc1ccc(Nc2cccc3c2CCN(CC(C)(C)F)C3)cc1-c1ccc(C#N)cn1 [Compound 198]
46 | 0.001 to 1 | Cc1ccc(Nc2cccc3c2CCN(C2CCS(=O)(=O)C2)C3)cc1-c1ccc(F)cn1 (centres unmarked) [Compound 250]
47 | 10 to 100 | Cc1ccc(Nc2cccc3c2CCN(S(C)(=O)=O)C3)cc1-c1ccc(C#N)nn1 [Compound 207]
48 | 0.001 to 1 | Cc1ccc(Nc2cccc3c2CCN(C2CS(=O)(=O)C2)C3)cc1-c1ncc(F)cc1F [Compound 325]
49 | 10 to 100 | Cc1ccc(Nc2ncnc3c2CCN(C2CS(=O)(=O)C2)C3)cc1-c1cc2ccccc2cn1 [Compound 304]
50 | 10 to 100 | Cc1ccc(-c2cc(Nc3nccc4c3CCN(S(C)(=O)=O)C4)ccc2C)nc1 [Compound 236]
51 | 0.001 to 1 | Cc1ccc(Nc2cccc3c2CCN(CCS(C)(=O)=O)C3)cc1-c1ccc(Cl)cn1 [Compound 257]
52 | 10 to 100 | Cc1cnc(-c2cc(Nc3cccc4c3CCN(S(C)(=O)=O)C4)ccc2C)nc1 [Compound 216]
53 | 0.001 to 1 | Cc1ccc(Nc2cccc3c2CCN(C2CCS(=O)(=O)CC2)C3)cc1-c1ccc(F)cn1 [Compound 234]
54 | 0.001 to 1 | Cc1ccc(Nc2ncnc3c2CCN(S(C)(=O)=O)C3)cc1-c1cc2ccccc2cn1 [Compound 307]
55 | 1 to 10 | Cc1ccc(-c2cc(Nc3ncnc4c3CCN(S(C)(=O)=O)C4)ccc2C)nc1 [Compound 248]
56 | 0.001 to 1 | Cc1ccc(Nc2cccc3c2CCN(S(=O)(=O)CCN(C)C)C3)cc1-c1ncccc1F [Compound 289]
57 | 100 to 1000 | Cc1ccc(Nc2cccc3c2CCN(S(C)(=O)=O)C3)cc1C(=O)N(C)c1ccccc1 [Compound 193]
58 | 10 to 100 | CCOc1cnc(-c2nc(Nc3cccc4c3CCN(S(C)(=O)=O)C4)ccc2C)cn1 [Compound 333]
59 | 0.001 to 1 | Cc1cnc(-c2cc(Nc3cccc4c3CCN(S(C)(=O)=O)C4)ccc2C)c(F)c1 [Compound 228]
60 | 10 to 100 | Cc1ccc(Nc2nccc3c2CCN(C2CS(=O)(=O)C2)C3)cc1-c1cc2ccccc2cn1 [Compound 332]
61 | 1 to 10 | COc1ccc(-c2cc(Nc3cccc4c3CCN([C@@H]3CCS(=O)(=O)C3)C4)ccc2C)nn1 [Compound 321]

Row | IC50 [nM] | SMILES
62 | 1 to 10 | CCOc1ccc(-c2cc(Nc3cccc4c3CCN(CCS(=O)(=O)CC)C4)ccc2C)nn1 [Compound 297]
63 | 1 to 10 | COc1cnc(-c2cc(Nc3cccc4c3CCN(S(C)(=O)=O)C4)ccc2C)cn1 [Compound 190]
64 | 0.001 to 1 | Cc1ccc(Nc2cccc3c2CCN(C2CCS(=O)(=O)C2)C3)cc1-c1ccccn1 (centres unmarked) [Compound 265]
65 | 0.001 to 1 | Cc1ccc(-c2nc(Nc3cccc4c3CCN(C3CS(=O)(=O)C3)C4)ccc2Cl)nc1 [Compound 317]
66 | 1 to 10 | Cc1ccc(-c2cc(Nc3ncnc4c3CCN(S(=O)(=O)C(C)C)C4)ccc2C)nc1 [Compound 292]
67 | 1 to 10 | Cc1ccc(Nc2cccc3c2CCN(CC(C)(C)O)C3)cc1-c1ccc(F)cn1 [Compound 181]
68 | 1 to 10 | CCOc1ccc(-c2cc(Nc3cccc4c3CCN(C3CCS(=O)(=O)C3)C4)ccc2C)nn1 (centres unmarked) [Compound 296]
69 | 0.001 to 1 | Cc1ccc(Nc2cccc3c2CCN(C2CCS(=O)(=O)C2)C3)cc1-c1ncc(F)cc1F (centres unmarked) [Compound 326]
70 | 10 to 100 | CCOc1ccc(-c2nc(Nc3cccc4c3CCN(C3CS(=O)(=O)C3)C4)ccc2C)nn1 [Compound 329]
71 | 1 to 10 | Cc1ccc(Nc2cccc3c2CCN(S(C)(=O)=O)C3)cc1-c1cnc(N(C)C)cn1 [Compound 253]
72 | 0.001 to 1 | Cc1ccc(-c2cc(Nc3cccc4c3CCN(CCS(C)(=O)=O)C4)ccc2C)nc1 [Compound 223]
73 | 10 to 100 | Cc1ccc(-c2nc(Nc3cccc4c3CCN(CCS(C)(=O)=O)C4)ccc2C)nc1 [Compound 309]
74 | 0.001 to 1 | CCOc1cnc(-c2cc(Nc3cccc4c3CCN(S(C)(=O)=O)C4)ccc2C)cn1 [Compound 314]
75 | 0.001 to 1 | Cc1ccc(-c2cc(Nc3cccc4c3CCN(CC(F)(F)CO)C4)ccc2C)nc1 [Compound 212]
76 | 1 to 10 | Cc1ccc(Nc2cccc3c2CCN(S(C)(=O)=O)C3)cc1-c1cc(F)ccn1 [Compound 217]
77 | 0.001 to 1 | Cc1ccc(Nc2cccc3c2CCN(C2CCS(=O)(=O)C2)C3)cc1-c1cc2ccccc2cn1 (centres unmarked) [Compound 324]
78 | 1 to 10 | Cc1ccc(Nc2cccc3c2CCN(C2CS(=O)(=O)C2)C3)cc1-c1ncccc1F [Compound 275]

Same assay, conditions: enzymatic and cellular assays for the inhibition of hedgehog signaling pathways; read-out: IC50 Ranges

Row | IC50 [nM] | SMILES
79 | 0.001 to 1 | Cc1ccc(Nc2cccc3c2CCN([C@H]2CCS(=O)(=O)C2)C3)cc1-c1ncccc1F [Compound 343]
80 | 0.001 to 1 | [O-][S+]1CCC(N2CCc3c(cccc3Nc3ccc(Cl)c(-c4ncc(-c5ccccc5)[nH]4)c3)C2)CC1 (centres unmarked) [Compound 1]
